These results are taken from patent US10538544B1, “Method for administering cisplatin and a thiocyanate complex to treat ovarian cancer” (priority 2018, dated 2020).

Data set [1] has as its system A2780 S (cisplatin sensitive) human ovarian tumor cell line. Briefly: MTT assay, cell viability, 72 h, A2780 S. In kind it is cell-based. As to conditions: read-out: IC50 Values against A2780 S. As to the method:
(§1) MTT assay. The IC50 values in 72 hours of the compounds on human ovarian tumor cell lines, A2780 S (cisplatin sensitive) and A2780 CR (cisplatin resistance) were identified by cell viability test. 6000 cells per well in 100 μL cell media were seeded. After 24 h, all supernatant was aspirated out. Then 200 μL of drug solution is added to the first column of each well, and 100 μL of medium were added into the remaining well. The 100 μL of drug solution from first column was taken and mix well with the next column by repeated pipetting using a multichannel pipettor. The last two columns were leaved without drug addition to serve as blank control. After 72 h, supernatants in each well was replaced with 100 μL of 10% MTT (3-(4,5-dimethylthiazol-2-yl)-2,5-diphenyltetrazolium bromide) tetrazolium reduction assay solution, and incubated for at least 45 minutes at 37° C. After aspirating incubated solution, 100 μL of DMSO was added into each well to dissolve formazan crystals. The plates were then read using plate reader at 570 nm. The in vitro cytotoxicity of three platinum complexes (1), (2) and (3) was evaluated against a pair human ovarian tumor cell lines, A2780 S (cisplatin sensitive) and A2780 CR (cisplatin resistant). For comparison, anticancer activity of cisplatin was also evaluated under the same conditions. The IC50 values and cell viability curves are shown in Table 3 and FIG. 5 respectively.

Data set [2] relates to A2780 CR (cisplatin resistant) human ovarian tumor cell line. Briefly: MTT assay, cell viability, 72 h, A2780 CR. In kind it is cell-based. As to conditions: for IC50: MTT, 72 h, A2780 CR (cisplatin resistant), read-out: IC50 Values against A2780 CR; for Resistance factor: calculated from IC50 in A2780 CR and A2780 S. As to the method: as §1
For data set [3] the following is noted: background, literature; cited from earlier work.
For data set [4] the following is noted: background, literature; cited from earlier work. This is another data set of the same source.

What is called IC50 is the concentration at which inhibition is half-maximal.

Regarding `CC(C)CN(CC(C)C)C(=S)[S-].CC(C)CN(CC(C)C)C(=S)[S-].[Pt+2]` [(1), [Pt(S2CN^i Bu2)2]], the IC50 amounted to 5 ± 0.097 µM in data set [1] and 5.91 ± 0.92 µM in data set [2]. Also, the “cytotoxicity compared with cisplatin against A2780 CR cells” value in data set [2] (A2780 CR cells, in words) is “better cytotoxicity than cisplatin”. For the same compound, in data set [2], the Resistance factor is given as 1.18.

On to `CC(C)N(C(=S)[S-])C(C)C.CC(C)N(C(=S)[S-])C(C)C.[Pt+2]` [(3), [Pt(S2CN^i Pr2)2]], for which the IC50 in data set [1] worked out at 8.92 ± 0.58 µM. Besides, in data set [2], the IC50 amounted to 8.83 ± 0.83 µM and the Resistance factor is recorded as 1.00.

`N.N.[Cl][Pt][Cl]` [Cisplatin]: the values for the IC50 in data set [1] and in data set [2] were 0.33 ± 0.011 µM and 6.37 ± 1 µM, respectively. The Resistance factor in data set [2] was 19.20.

Take [Pt(ESDT)(Py)Cl]: the “effectiveness as antiproliferative agent compared with cisplatin” value in data set [3] is listed as “more effective as antiproliferative agent than cisplatin”. Moreover, the “renal toxicity compared with cisplatin” value in data set [4] is recorded as “much lower renal toxicity”.

As to [Pt(S2CNBn2)2].py [(2)], the IC50 in data set [1] worked out at 16.4 ± 1.35 µM. In addition, in data set [2], the IC50 came to 15 ± 1.21 µM and the Resistance factor is recorded as 0.92.
